Test results: patent US8252832B2, “Kinesin inhibitors as cancer therapeutics” (Novartis AG, priority 2007, dated 2012)
pEC50: −log10 of the molar value.

What was measured:
RL = test: Cell cycle profile by FACS (propidium iodide DNA content); assay type: cell-based, human; conditions: 24 and 48 hr
Procedure: Lymphoma cell line cells were treated with the KSP inhibitors of the invention and analyzed by FACs analysis. Approximately 2×10^5 cells were harvested, cell pellets were washed with cold PBS twice and re-suspended in 500 μL cold PBS. Cells were fixed by adding 8 mL cold 80% ethanol while vortexing slowly. After 15 minutes of incubation fixed cells were washed twice with PBS and cell pellets were re-suspended in 1 mL of PI/RNASE staining buffer (BD Pharmingen™ catalog #550825) and incubated for 15 minutes at 37° C. protected from light. Propidium iodide (PI) is a fluorescent vital dye that stains both DNA and RNA. Therefore the RNA must be removed by digestion with ribonuclease (RNase). Stained cells were passed through a cell strainer into a FACS tube to reduce the number of cell aggregates (BD Falcon #352235) prior to FACS analysis. The DNA content of the fixed and stained cells was analyzed by the BD FACSCalibur flow cytometer using the CellQuest software.
Following mitotic arrest, cells have several options including coming out of arrest and dividing normally, undergoing apoptosis directly, or exiting mitosis without cytokinesis (a phenomenon called mitotic slippage). If cells undergo mitotic slippage, they can enter a pseudo-G1 and then either continue to cycle, senesce, or undergo apoptosis. […]

KB8.5 = test: CellTiter-Glo proliferation, 72 hours; assay type: cell-based; conditions: Homo sapiens; Epidermoid, KB8.5, 72 hours
Colo-205 [1] = test: CTG (CellTiter-Glo) screening assay; assay type: cell-based; conditions: Homo sapiens
Source text: (§1) Identification of tumor types that are the most sensitive to the KSP inhibitors of the present invention can be accomplished using an unbiased approach that uses several cell-based assays. The assays chosen were as follows: • CellTiter-Glo®. This is an assay designed to measure ATP concentration in a cell culture, and can be correlated to cell number. Briefly CellTiter-Glo® (Promega Corporation) is a homogeneous method using the single CellTiter-Glo® reagent to detect ATP wherein ATP in the assay drives the activity of a thermostable luciferase to create a luminescent signal which can then be measured and correlated with the number of viable cells. Briefly, for adherent cells, 1,000 to 5,000 cells/well were plated in 96-well plates (100 μl/well) and let to adhere for 24 hours before being treated with drug. For non-adherent cells, 1,000 to 10,000 cells/well were plated in 96-well plates (100 μl/well) and immediately treated with drug. Drug dilutions were prepared in DMSO at 1000 times the final concentration. These dilutions were then diluted 1/100 in growth media before being added to the cells (11 μl/well) to achieve the desired final concentration. After 48 h in a 37° C. tissue culture incubator, the plates were processed for the CellTiter-Glo®assay according to the manufacturer's instructions. Protocol for a 72 hour cell proliferation assay: The 72 hour assay was performed the same way as the 48 hour assay except for the following modifications: For adherent cells, 500 to 5,000 cells/well were plated in 96-well plates (90 μl/well cell growth media) and left to adhere for 24 hours before being treated with drug. For non-adherent cells, 1,000 to 10,000 cells/well were plated in 96-well plates (90 μl/well cell growth media) and immediately treated with drug. Data values presented represent the concentration of test compound required for a 50% reduction in growth. • LDH release. The Cytotoxicity Detection KitPLUS (LDH) assay (Roche Diagnostics, Manheim, Germany) measures the amount of LDH released in the media by dying cells; LDH catalyzes the conversion of lactate into pyruvate. The enzymatic reaction is coupled to a chemical reaction that uses a tetrazolium salt to form a formazan that is red and can be detected by its absorbance at 490 nm. This assay measures the amount of cell death after drug treatment. Cells were plated at 10,000 cells/well in 96-well plates (100 μl/well). Adherent cells were let to adhere for 24 hours before being treated with drug, whereas non-adherent cells were immediately treated with drug. Drug dilutions were prepared in DMSO at 1000 times the final concentration. These dilutions were then diluted 1/100 in growth media before being added to the cells (11 μl/well) to achieve the desired final concentration. After 48 h in a 37° C. tissue culture incubator, the plates were processed for the Cytotoxicity Detection KitPLUS (LDH) assay according to the manufacturer's instructions. The media only values were subtracted from all the data points before analysis. Data values presented correspond to the compound concentration wherein LDH output is at half maximal level. • Caspase-Glo® 3/7. The Caspase-Glo® 3/7 Assay (Promega Corporation) is a homogeneous luminescent assay that measures caspase-3/7 activities. The assay provides a proluminescent caspase-3/7 DEVD-aminoluciferin substrate and a thermostable luciferase in a reagent optimized for caspase-3/7 activity, luciferase activity and cell lysis. Adding the single Caspase-Glo® 3/7 Reagent results in cell lysis, followed by caspase cleavage of the substrate. This liberates free aminoluciferin, which is consumed by the luciferase, generating a luminescent signal. The signal is proportional to caspase-3/7 activity. Data values presented correspond to the compound concentration wherein caspase 3/7 activity is at half maximal level.

HT29 = test: CTG (CellTiter-Glo) screening assay; assay type: cell-based; conditions: Homo sapiens, HT-29
Source text: as §1

MV4; 11 [2] = test: CTG (CellTiter-Glo) screening assay; assay type: cell-based; conditions: Homo sapiens
Source text: as §1

T47-D = test: CTG (CellTiter-Glo) screening assay; assay type: cell-based; conditions: Homo sapiens, T47D
Source text: as §1

Colo-205 [3] = test: LDH release assay; assay type: cell-based; conditions: Homo sapiens
Source text: (§2) Identification of tumor types that are the most sensitive to the KSP inhibitors of the present invention can be accomplished using an unbiased approach that uses several cell-based assays. The assays chosen were as follows: • CellTiter-Glo®. This is an assay designed to measure ATP concentration in a cell culture, and can be correlated to cell number. Briefly CellTiter-Glo® (Promega Corporation) is a homogeneous method using the single CellTiter-Glo® reagent to detect ATP wherein ATP in the assay drives the activity of a thermostable luciferase to create a luminescent signal which can then be measured and correlated with the number of viable cells. Briefly, for adherent cells, 1,000 to 5,000 cells/well were plated in 96-well plates (100 μl/well) and let to adhere for 24 hours before being treated with drug. For non-adherent cells, 1,000 to 10,000 cells/well were plated in 96-well plates (100 μl/well) and immediately treated with drug. Drug dilutions were prepared in DMSO at 1000 times the final concentration. These dilutions were then diluted 1/100 in growth media before being added to the cells (11 μl/well) to achieve the desired final concentration. After 48 h in a 37° C. tissue culture incubator, the plates were processed for the CellTiter-Glo®assay according to the manufacturer's instructions. Protocol for a 72 hour cell proliferation assay: The 72 hour assay was performed the same way as the 48 hour assay except for the following modifications: For adherent cells, 500 to 5,000 cells/well were plated in 96-well plates (90 μl/well cell growth media) and left to adhere for 24 hours before being treated with drug. For non-adherent cells, 1,000 to 10,000 cells/well were plated in 96-well plates (90 μl/well cell growth media) and immediately treated with drug. Data values presented represent the concentration of test compound required for a 50% reduction in growth. • LDH release. […] The enzymatic reaction is coupled to a chemical reaction that uses a tetrazolium salt to form a formazan that is red and can be detected by its absorbance at 490 nm. […]

MV4; 11 [4] = test: LDH release assay; assay type: cell-based; conditions: Homo sapiens; MV4;11, 48 h
Source text: as §2

With `CC(C)(C)[C@H](c1nc(-c2cc(F)ccc2F)cn1Cc1ccccc1)N(CC[C@H](N)CF)C(=O)CO` [Compound IIa] the “cell cycle profile (DNA content, FACS)” value (RL) was “remained arrested in mitosis”, the GI50 (KB8.5) was 0.5 nM and the GI50 (Colo-205 [1]; Colo-205, 24 h) was greater than 5 nM. The GI50 (Colo-205 [1]; Colo-205, 48 h) was 0.18 nM, the GI50 (Colo-205 [1]; Colo-205, 72 h) was 0.19 nM and the GI50 (HT29; HT29, 24 h) was greater than 5 nM. The GI50 (HT29; HT29, 48 h) was greater than 5 nM, the GI50 (HT29; HT29, 72 h) was 0.21 nM and the GI50 (MV4; 11 [2]; MV4;11, 24 h) was 0.05 nM. It also gave a GI50 (MV4; 11 [2]; MV4;11, 48 h) of 0.04 nM, a GI50 (MV4; 11 [2]; MV4;11, 72 h) of 0.04 nM and a GI50 (T47-D; 24 h) greater than 5 nM. For the same compound, the GI50 (T47-D; 48 h) was greater than 5 nM, the GI50 (T47-D; 72 h) was 0.45 nM and the pEC50 (Colo-205 [3]; Colo-205, 48 h) was 9.96. The pEC50 (Colo-205 [3]; Colo-205, 72 h) was 9.80 and the pEC50 (MV4; 11 [4]) was 10.52.
